# Active and inactive are the calls of the source. Rule as the data show it, for most assays here: active = IC50 of 5 µM or less and inactive = more.
# Tests used:
# [1] = CellTiter-Glo luminescent dose response of DLD-1 viability loss (AID 1117352); type: functional
# [2] = HCT116 cell viability decrease, GSK3B pretreatment – CellTiter-Glo, IC50, dose response (AID 1117339); type: functional; conditions: HCT-116
# [3] = cytotoxicity toward Colo320 cells – cell-based, CellTiter-Glo luminescence, IC50, dose response (AID 1117334); type: functional; conditions: COLO 320
# [4] = SNU-C1 cell viability reduction, dose response, CellTiter-Glo luminescence (AID 1117323); type: functional, cell-based
# [5] = cytotoxicity toward HT-29 cells – cell-based, CellTiter-Glo luminescence, IC50, dose response (AID 1117330); type: functional
# [6] = Concentration-dependent survival of SW480 colon cancer line, luminescence detection with CellTiter-Glo, half-maximal inhibitory concentration (AID 1117338); type: functional
# [7] = RKO cell viability reduction, dose response, CellTiter-Glo luminescence (AID 1117322); type: functional
# [8] = cytotoxicity toward HCT116 cells – cell-based, CellTiter-Glo luminescence, IC50, dose response (AID 1117332); type: functional; conditions: HCT-116
# [9] = target: Protein Tat (Human immunodeficiency virus type 1 group M subtype B (isolate HXB2)(HIV-1), UniProt P04608); type: functional;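 also: tat binding to TAR RNA read out by fluorescence polarization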
# Sequence of Protein Tat (P04608 whole entry): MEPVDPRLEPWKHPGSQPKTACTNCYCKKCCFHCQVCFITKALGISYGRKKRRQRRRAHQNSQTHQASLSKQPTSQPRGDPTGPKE
# [10] = target: T1, Calpain-2 catalytic subunit (Sus scrofa, UniProt P43367); assay: pig calpain II inhibitor potency, dose response, biochemical, fluorogenic peptide substrate (AID 1420); type: functional
# T1 sequence (P43367 whole entry): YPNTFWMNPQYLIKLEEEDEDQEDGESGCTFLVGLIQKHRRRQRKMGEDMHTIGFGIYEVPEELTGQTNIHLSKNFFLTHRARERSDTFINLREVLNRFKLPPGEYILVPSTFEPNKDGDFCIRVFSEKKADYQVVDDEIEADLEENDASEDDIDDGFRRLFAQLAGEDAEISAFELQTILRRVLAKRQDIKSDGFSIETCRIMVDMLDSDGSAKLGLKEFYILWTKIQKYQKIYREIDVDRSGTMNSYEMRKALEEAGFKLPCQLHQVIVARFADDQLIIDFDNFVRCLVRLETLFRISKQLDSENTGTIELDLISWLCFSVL
# [11] = Vero cell cytotoxicity, dose response, cytotoxicity control for Vif-APOBEC3G degradation inhibitor project, Vero cells (AID 1117358); type: functional; conditions: Human immunodeficiency virus 1, Vero
structure (smiles),measurement,setting,value
CSc1ccc2c(c1)N(CCC1CCCCN1C)c1ccccc1S2 (stereo unspecified) [THIORIDAZINE],IC50,[1],> 20 µM (inactive)
same,IC50,[2],8.11 µM (inactive)
same,IC50,[3],7.92 µM (inactive)
same,IC50,[4],2.9 µM (active)
same,IC50,[5],5.9 µM (inactive)
same,IC50,[6],3.71 µM (active)
same,IC50,[7],5.49 µM (inactive)
same,IC50,[8],> 20 µM (inactive)
CCSC1=C(C#N)C(c2cccs2)/C(=C(\O)OC)C(C)=N1 (stereo unspecified),IC50,[9],> 100 µM (active)
Cc1ccc(Cl)cc1N1CCN(C(=O)Cc2cn(C)c3ccccc23)CC1,IC50,[10],6.39 µM (not active)
same,CC50,[11],> 40 µM (active)

# — ChEMBL document CHEMBL1201862, “PubChem BioAssay data set” (2004)
